Tested on: human OA infra-patellar fat pad (IPFP) explants
Assay: PGE2 levels in culture supernatant of IPFP explants
Format: cell-based
Conditions: n = 5 donors, 24 h, relative to control (Figure 6E)
Experimental: Figure 6 Peptide p[63−82] activity on OA knee joint tissues Human OA knee joint tissues were cultured for 24 h in the presence of BMP7, peptide p[63−82], or the scrambled version of peptide p[63−82] and compared to control conditions. (A) Cartilage tissues (n = 7 individual donors) were exposed to shown conditions and analyzed for COL2A1, COL10A1, and COX-2 mRNA expression by quantitative real-time PCR (normalized for 28S rRNA expression and relative to control conditions). (B) GAG release in medium from cartilage tissues (n = 5 individual donors) was determined, and data were calculated relative to the control condition. (C) PGE2 levels in culture supernatant from synovium (n = 5 donors). (D) PGE2 levels in culture supernatant from cartilage tissues from (B) (n = 5 donors). (E) PGE2 levels in culture supernatant from IPFP (n = 5 donors). (F) PGE2 levels in culture supernatant from the meniscus. Synovium, IPFP, and meniscus tissues were from the same 5 donors as the cartilage tissues in (B) and (C). PGE2 levels in conditions were calculated relative to controls for each donor. In graphs, error bars represent mean ± SEM; data are presented relative to the control condition for each time point. Statistical differences (unpaired two-tailed Student’s t test) were calculated to control condition: ∗p < 0.05, ∗∗p < 0.01, and ∗∗∗p < 0.001. […]

| Substance | PGE2 levels from IPFP explants |
| --- | --- |
| BMP7: full-length recombinant bone morphogenetic protein 7 (R&D Systems), used at 1 nM | reduced |
| H-AAYYSEGESAFPLNSYMNAT-OH [p[63−82]] | reduced |

— publication PMC8022858, “Discovery of bone morphogenetic protein 7-derived peptide sequences that attenuate the human osteoarthritic chondrocyte phenotype” (Molecular Therapy. Methods & Clinical Development, 2021)
